Experiments:
MdNCR1b [1] = test: product formation assay, varied NADPH […]; assay type: biochemical, Malus domestica; settings: 100 µM naringenin chalcone, Bis-Tris propane 0.1 M, pH 3.0, 30 °C, 30 min
MdNCR1b [2] = test: product formation assay, varied naringenin chalcone […]; assay type: biochemical, Malus domestica; settings: 400 µM NADPH, Bis-Tris propane 0.1 M, pH 3.0, 30 °C, 30 min; read-out: Km (apparent)

Km (MdNCR1b [1]) | Km (MdNCR1b [2]) | Compound
23.1 ± 9.4 µM | – | NC(=O)C1=CN([C@@H]2O[C@H](COP(=O)(O)OP(=O)(O)OC[C@H]3O[C@@H](n4cnc5c(N)ncnc54)[C@H](OP(=O)(O)O)[C@@H]3O)[C@@H](O)[C@H]2O)C=CC1 [NADPH]
– | 9.9 ± 2.6 µM | O=C(/C=C/c1ccc(O)cc1)c1c(O)cc(O)cc1O [compound 1, 2ʹ,4,4ʹ,6ʹ-tetrahydroxychalcone]
